From US12515963B2, “Nanoparticle composition and method of inhibiting ovarian cancer cell viability” (priority 2019, dated 2026)
Read-outs that look alike come from different tables or passages of the source.

How the values were obtained:
Bacillus subtilis = test: Minimum inhibitory concentration (MIC); assay type: cell-based
Protocol: (§1) Minimum inhibitory concentration (MIC) was determined to assess the antibacterial potential of the compositions of Example 6 in microorganisms. MIC is the lowest concentration of a drug which prevents visible growth of bacterium. The tested panel of microorganisms represented a very broad spectrum of antibiotic resistant microorganisms. Sample 4-1 and Tetracycline (as control) were tested against multidrug-resistant Salmonella typhimurium DT 104. Sample 4-2 and Amoxicillin (as control) were tested against Bacillus subtilis. Sample 4-3 and Vancomycin (as control) were tested against vancomycin resistant Enterococcus type Van-A and also vancomycin resistant Leuconostoc mesenteroides VKPM B-4177. In all test conditions monometallic silver nanoparticle composition with Miramistin® alone (obtained using a process known in the art) were used as a control. This composition is referred to as “Ag-NPs-Myramistin in Table 8.

[1] = tested on: U-87 (human glioblastoma); test: Cancer cell viability (cytotoxic effect); assay type: cell-based; conditions: U-87, Doxorubicin column
Protocol: (§2) The cytotoxic effects of Samples 1-1 and 1-3 on cancer cells were studied in HCT-116 (human colon cancer cell lines), CRL-2945 (human ovarian carcinoma) and U-87 (human glioblastoma). Cell viability was analyzed in cells treated with different concentrations of Sample 1-1 and Sample 1-3. Nanoparticle samples were able to reduce viability in a dose-dependent manner. […] The doses were used to calculate IC50 value against the control cells (Table 3).
(§3) The cytotoxic effects of Samples 6-1, 6-2, 7-1 and 7-2, glucosamine and Metformin on cancer cells were studied in CRL-2945 (human ovarian carcinoma) and U-87 (human glioblastoma). The doxorubicin resistant CRL-2945 and U-87 cells were generated by exposing the cells to the cytotoxic drug at incrementally increasing concentrations. In this way, resistant sublines were obtained (CRL-2945-R and U-87-R). The cell viability was analyzed in cells treated with different concentrations of Sample 6-1, Sample 6-2, Sample 7-1 and Sample 7-2. The samples were able to reduce viability in a dose-dependent manner. […] The doses were used to calculate IC50 values against the control cells (Table 12).

[2] = tested on: CRL-2945 (human ovarian carcinoma); test: Cancer cell viability (cytotoxic effect); assay type: cell-based; conditions: CRL-2945, Doxorubicin column
Protocol: as §2, §3

CRL-2945-R = test: Cancer cell viability (cytotoxic effect), doxorubicin resistant subline; assay type: cell-based; conditions: Homo sapiens, Doxorubicin column
Protocol: as §3

U-87-R = test: as above; assay type: cell-based; conditions: Homo sapiens, Doxorubicin column
Protocol: as §3

[3] = tested on: CRL-2945 and U-87 cancer cells; test: Activity of the drugs alone on cancer cells; assay type: cell-based, human; conditions: drug alone, data not shown
Protocol: as §3
Higher toxicity of Sample 6-2 can be explained by the fact that Sample 6-2 bears very toxic doxorubicin, which is delivered into the cells with nanoparticles. […] Cancer cells CRL-2945-R and U-87-R were cultured in serum-free media to enrich the populations with cancer stem cells. Thus, enriched cells were tested with the samples.

[4] = tested on: vancomycin resistant Leuconostoc mesenteroides VKPM B-4177; test: Minimum inhibitory concentration (MIC); assay type: cell-based
Protocol: (§4) Minimum inhibitory concentration (MIC) was determined to assess antibacterial and antifungal activities of the samples in microorganisms. MIC is the lowest concentration of a drug, which prevents visible growth of bacterium. The tested panel of microorganisms represent a very broad spectrum of microorganisms, including Gram-positive and Gram-negative strains (Staphylococcus aureus vs. Escherichia coli), methicillin resistant strain INA 00761 (Staphylococcus aureus), vancomycin resistant strain VKPM B-4177 (Leuconostoc mesenteroides), fungi strain INA 00760 (Aspergillus niger), and yeast strain RIA259 (Saccharomyces cerevisiae).
as §1

[5] = tested on: Escherichia coli ATCC 25922; test: Minimum inhibitory concentration (MIC); assay type: cell-based
Protocol: as §4

[6] = tested on: Saccharomyces cerevisiae RIA 259; test: Minimum inhibitory concentration (MIC); assay type: cell-based
Protocol: as §4

[7] = tested on: methicillin resistant Staphylococcus aureus INA 00761; test: Minimum inhibitory concentration (MIC); assay type: cell-based
Protocol: as §4

[8] = tested on: Aspergillus niger INA 00760; test: Minimum inhibitory concentration (MIC); assay type: cell-based
Protocol: as §4

[9] = tested on: Staphylococcus aureus FDA 209P; test: Minimum inhibitory concentration (MIC); assay type: cell-based
Protocol: as §4

[10] = tested on: multidrug-resistant Salmonella typhimurium DT 104; test: Minimum inhibitory concentration (MIC); assay type: cell-based; conditions: Salmonella enterica
Protocol: as §1

Q: How did the MIC (Bacillus subtilis) turn out when `CC1(C)S[C@@H]2[C@H](NC(=O)[C@H](N)c3ccc(O)cc3)C(=O)N2[C@H]1C(=O)O` [Amoxicillin] was run?
A: > 128 µg/mL

Q: Which IC50 [1] does the source give for `COc1cccc2c1C(=O)c1c(O)c3c(c(O)c1C2=O)C[C@@](O)(C(=O)CO)C[C@@H]3O[C@H]1C[C@H](N)[C@H](O)[C@H](C)O1` [Doxorubicin] here?
A: 80 nM

Q: And the IC50 [2]?
A: 130 nM

Q: What about the IC50 (CRL-2945-R) of the same molecule?
A: 280 nM

Q: And the IC50 (U-87-R)?
A: 1200 nM

Q: For `N[C@H]1C(O)O[C@H](CO)[C@@H](O)[C@@H]1O` (stereo partly drawn) [Glucosamine], which “activity alone on cancer cells” value [3] is on record?
A: did not show any significant activity

Q: `CN(C)C(=N)N=C(N)N` [Metformin] was tested. Which “activity alone on cancer cells” value [3] did it give?
A: did not show any significant activity

Q: Which MIC ([4]; Leuconostoc mesenteroides VKPM B-4177, read-out: MIC) does the source give for `CCCCCCCCCCCCCC(=O)NCCC[N+](C)(C)Cc1ccccc1.[Cl-]` [Miramistin ®, benzyl-dimethyl-[3-(tetradecanoylamino)propyl]ammonium chloride] here?
A: 10 µg/mL

Q: And the MIC ([5]; ATCC25922, read-out: MIC)?
A: 20 µg/mL

Q: What about the MIC ([6]; RIA259, read-out: MIC) of the same molecule?
A: 20 µg/mL

Q: And the MIC ([7]; read-out: MIC)?
A: 10 µg/mL

Q: And the MIC ([8]; INA00760, read-out: MIC)?
A: 20 µg/mL

Q: What about the MIC ([9]; FDA209P, read-out: MIC) of the same molecule?
A: 5 µg/mL

Q: Which results are given for `O=[N+]([O-])[O-].[Ag+]` [Silver Nitrate, silver nitrate]?
A: MIC ([4]; Leuconostoc mesenteroides VKPM B-4177): 5 µg/mL; MIC [5]: 10 µg/mL; MIC [6]: 10 µg/mL; MIC [7]: 5 µg/mL; MIC [8]: 20 µg/mL; MIC [9]: 20 µg/mL

Q: How did the MIC [10] turn out when `CN(C)[C@@H]1C(O)=C(C(N)=O)C(=O)[C@@]2(O)C(O)=C3C(=O)c4c(O)cccc4[C@@](C)(O)[C@H]3C[C@@H]12` [Tetracycline] was run?
A: > 128 µg/mL

Q: With `CN[C@H](CC(C)C)C(=O)N[C@H]1C(=O)N[C@@H](CC(N)=O)C(=O)N[C@H]2C(=O)N[C@H]3C(=O)N[C@H](C(=O)N[C@H](C(=O)O)c4cc(O)cc(O)c4-c4cc3ccc4O)[C@H](O)c3ccc(c(Cl)c3)Oc3cc2cc(c3O[C@@H]2O[C@H](CO)[C@@H](O)[C@H](O)[C@H]2O[C@H]2C[C@](C)(N)[C@H](O)[C@H](C)O2)Oc2ccc(cc2Cl)[C@H]1O` [Vancomycin] as the molecule, how does the MIC ([4]; Leuconostoc mesenteroides) read?
A: > 128 µg/mL
